Laboratory results reported in US20140205566A1, “CYCLIC NUCLEUOSIDE DERIVATIVES AND USES THEREOF” (NOVARTIS AG, priority 2012, published 2014).

What was measured:
dengue virus [1] = experiment: Dengue EC50 determination: PBMC infected with virus/humanized 4G2 antibody complex, plaque reduction assay using BHK cells; format: cell-based; conditions: M.O.I of 1, 48 hours, plaque reduction in BHK cells
Protocol: Cryopreserved PBMC (Peripheral Blood Mononuclear Cell) cells were purchased from AllCells, LLC in USA. The cells were then thawed according to manufacturer's instructions and re-suspended in RPMI medium supplemented with 1% penicillin/streptomycin solution and 10% Fetal Calf serum. The cells were then counted and viability checked (viability should be at least 80%). After centrifuging and removing the media, the cells were diluted to 1×10^7 cells/mL in RPMI medium supplemented with 1% penicillin/streptomycin. 50 μl of the cells were then dispensed into 96-well tissue culture plate resulting in 5×10^5 cells/well. Next, virus with humanized 4G2 mixture was prepared for infection. Briefly, virus (2×10^7 pfu/ml) was mixed with humanized 4G2 antibody with the final antibody concentration of 0.38 μg/ml and incubated for 30 minutes at 4° C. to assist virus/antibody complex formation. The virus-antibody complex was then added to the PBMC at multiplicity of infection (M.O.I) of 1. The mixture of cells, virus and antibody was then further incubated in the plates at 37° C. for an hour in the humidified incubator for virus attachment and infection to take place. Serial diluted compounds were then added to the final media volume of 200 μl with 2% Fetal Calf Serum (final PBMC concentration would be 2.5×10^6 cells/mL). The plates were then incubated at 37° C., 5% CO2 for another 48 hours. The extent of the infection and compound inhibition was measured by plaque reduction assay using BHK cells [RD-2004-80036]. Briefly, supernatants of BHK cells grown in 24-well tissue culture (seeded at 200,000 cells/well the night before) were removed and subjected to 200 μl of diluted supernatants derived from PBMC infection containing serial diluted compounds. After incubating it for 37° C. for 1 hour in the incubator, the supernatants were removed and BHK cells overlaid with RPMI media containing 0.8% methyl-cellulose, 0.5% DMSO, 0.05% sodium bicarbonate, 25 mM HEPES, 2% fetal bovine serum and 1% penicillin/streptomycin solution. After additional 4 days of incubation at 37° C. incubator, the monolayer of BHK cells were fixed with 4% paraformaldehyde, stained with crystal violet and plaques counted. The dose response (n=2) is calculated by Prism from Graphpad software using a mathematical curve fitting analysis called nonlinear regression with four independent parameters. Briefly, the software generates the best fit curve using the formula F(x)=((A−D)/(1+((x/C)̂B)))+D. In this formula, x represents the concentration of the compound, A is the minimum value, B represents the steepness of the curve (sometimes known as Hill slope), C is the inflection point and D is the maximum value. EC50 was estimated as the concentration of the compound which will inhibit 50% of the plaque formation. A positive control (7-deaza-2′-C-acetylene-adenosine) was used to ensure the quality of the data.

[2] = Liver S9 stability determination; format: in vitro ADME; conditions: pooled liver S9 fraction; human liver S9 fraction, 1 μM compound, 37° C., up to 120 mins; read-out: liver S9 t1/2
Description: The liver is the main organ of metabolism and contains a high concentration of drug metabolizing enzymes. Metabolic clearance, particularly hepatic, is one of the main determinants affecting systemic drug exposure following both oral and i.v. administration. To assess the ability of the compounds of the invention to reach a systemic circulation, the hepatic S9 fraction was chosen to test for stability of the compounds. Hepatic S9 fraction was obtained following centrifugation of homogenized liver tissue at 9,000 g. The hepatic S9 fraction is composed of both microsomal and cytosolic fractions and contains all the enzymes contained in microsomes plus additional phase I and phase II cytosolic enzymes.
Stock solutions of each tested compound (100 μM) were prepared in methanol by two subsequent 1:10 dilutions from 10 mM DMSO drug solutions, the final assay concentration was 1 μM. Frozen pooled liver S9 fraction was thawed from −20° C. and diluted in phosphate buffer (with and without NADPH) which was pre-warmed at 37° C. for 10 minutes. The reaction was initiated by addition of compound. Manual sample plates were incubated on a Thermo Max Q 2000 shaker placed in a temperature controlled Sartorius Certomat H hood set at 37° C. Sequential samples were removed at designated timepoints (0, 5, 15, 30, 60 and 120 mins) and quenched with 4 volumes of ice cold acetonitrile (containing internal standard, diazepam), centrifuged and supernatants reconstituted in water (acetonitrile:water, 50:50% v/v). Samples were then analyzed by LCMS/MS or LC-UV to assess parent depletion. In vitro half-life (t1/2) is calculated based on the rate of disappearance of compound from the reaction mixture at incubation timepoints up to 2 hours.

dengue virus [3] = experiment: Intracellular nucleoside triphosphate concentration needed to inhibit 50% of viral production (NTP50) in PBMC; format: cell-based
Protocol: NTP50 is defined as the concentration of the nucleoside triphosphate (NTP) that will inhibit 50% of viral production. The NTP50 experiment was performed using cryopreserved PBMC as described above in the Dengue EC50 determination section. Briefly, PBMC was thawed and incubated in RPMI medium containing 2% Fetal Bovine serum (FBS), 1% Penicillin/Streptomycin supplemented with various concentration of a representative compound of the present invention (e.g., Example 2) up to 100 μM. After the intracellular conversion of Example 2 into corresponding nucleoside triphosphate reached steady state (24 hours at 37° C. in the incubator), the cells were spun down, washed with 0.9% NaCl solution and lyzed in RIPA buffer (50 mM Tris pH 7.5, 150 mM NaCl, 1% NP40) containing with protease and phosphotase inhibitor. The cells were further incubated at room temperature for complete lysis of the cells and the cell debris spun down at 13,000 g in at 4° C. for 20 minutes. The lysate was transferred into […] and the concentration of the nucleoside triphosphate was measured. The concentration of the nucleoside triphosphate was then plotted against the concentration of Example 2 and a curve of the concentration of the nucleoside triphosphate vs incubated Example 2 was generated using Michaelis-Menten Kinetics with the formula Y=A[Example 2]/B+[Example 2] where Y is the concentration of the nucleoside triphosphate and [Example 2] is the concentration of the compound Example 2. A and B were constants determined by best fitting. By EC50 of [Example 2] in the equation, the intracellular concentration of nucleoside triphosphate which corresponds to 50% reduction of the virus (NTP50) can be determined.
Since all compounds of the present invention would be converted to the same nucleoside triphosphate intracellularly (the structure of NTP is shown below), the NTP50 of all compounds of the present invention would be the same regardless which compound was used in the experiment. NTP50 for the compound Example 2 was measured to be 0.0016 μM in PBMC lysate from 1 million cells with 100 μL of lysis buffer. The Mean Corpuscular Volume of PBMC is approximately 0.3×10^−6 μL/per cell=0.3 μL/1 million cells. By using the literature of Simiele, M. et al. Antimicrob. Agents Chemother. 2011 55, 2976-2978, NTP50=0.0016×(100/0.3)=0.53 μM/1 million cells=0.53×0.3/1.0×10^6=0.159×10^−6 μmol/1 million cells. Thus, from the calculation, the intracellular nucleoside triphosphate concentration needed to inhibit 50% of viral production (NTP50) is around ˜200 fmol/1 million cells.

CCOC(=O)[C@H](C)N[P@@]1(=O)OC[C@H]2O[C@@H](n3cnc4c(OCC)nc(N)nc43)[C@](C)(F)[C@@H]2O1 [Example 1, (S)-ethyl 2-(((2R,4aR,6R,7R,7aR)-6-(2-amino-6-ethoxy-9H-purin-9-yl)-7-fluoro-7-methyl-2-oxidotetrahydro-4H-furo[3,2-d][1,3,2]dioxaphosphinin-2-yl)amino)propanoate]
EC50 (dengue virus [1]): 230 nM
half-life at 1 μM [2]: 1.27 h

CCOc1nc(N)nc2c1ncn2[C@@H]1O[C@@H]2CO[P@@](=O)(N[C@@H](C)C(=O)OC(C)C)O[C@H]2[C@@]1(C)F [Example 2, (S)-isopropyl 2-(((2S,4aR,6R,7R,7aR)-6-(2-amino-6-ethoxy-9H-purin-9-yl)-7-fluoro-7-methyl-2-oxidotetrahydro-4H-furo[3,2-d][1,3,2]dioxaphosphinin-2-yl)amino)propanoate]
EC50 (dengue virus [1]): 72 nM
half-life at 1 μM [2]: 0.6 h
NTP50 (dengue virus [3]; in PBMC lysate from 1 million cells with 100 μL of lysis buffer): 0.0016 µM
NTP50 (dengue virus [3]; intracellular amount, calculated): 0.159×10^−6 μmol/1 million cells
NTP50 (dengue virus [3]; intracellular amount, rounded from the calculation): ~200 fmol/1 million cells
NTP50 (dengue virus [3]; intracellular, corrected with PBMC volume 0.3 μL/1 million cells): 0.53 μM/1 million cells

CCOc1nc(N)nc2c1ncn2[C@@H]1O[C@@H]2CO[P@](=O)(N[C@@H](C)C(=O)OC)O[C@H]2[C@@]1(C)F [Example 3, (S)-methyl 2-(((2R,4aR,6R,7R,7aR)-6-(2-amino-6-ethoxy-9H-purin-9-yl)-7-fluoro-7-methyl-2-oxidotetrahydro-4H-furo[3,2-d][1,3,2]dioxaphosphinin-2-yl)amino)propanoate]
EC50 (dengue virus [1]): 460 nM
half-life at 1 μM [2]: > 2 h

CCOc1nc(N)nc2c1ncn2[C@@H]1O[C@@H]2CO[P@@](=O)(N[C@H](C)C(=O)OC(C)C)O[C@H]2[C@@]1(C)F [Example 6, (R)-isopropyl 2-(((2S,4aR,6R,7R,7aR)-6-(2-amino-6-ethoxy-9H-purin-9-yl)-7-fluoro-7-methyl-2-oxidotetrahydro-4H-furo[3,2-d][1,3,2]dioxaphosphinin-2-yl)amino)propanoate]
EC50 (dengue virus [1]): 370 nM
half-life at 1 μM [2]: > 2 h
